Structures are written as SMILES. Entries after “also recorded” stand apart in the source; their conditions may differ.

The values below come from publication PMC7336998, “Discovery of secondary sulphonamides as IDO1 inhibitors with potent antitumour effects in vivo” (Journal of Enzyme Inhibition and Medicinal Chemistry, 2020).

One series concerns HeLa cells. The experiment in a line: HeLa cell viability by MTT at the end of the IDO1/kynurenine assay. In kind it is cell-based, human. As to conditions: under the experimental conditions of the IDO1 assay. An excerpt: It is well known that IDO1 is broadly expressed in human cancers and is induced by pro-inflammatory cytokines, such as interferon gamma (IFN-γ) and tumour necrosis factor alpha (TNF-α)[41]. Here we utilised a human cervical cancer cell line HeLa that endogenously expresses IDO1 upon IFN-γ treatment to evaluate the IDO1 inhibitory activity of the synthesised compounds by measuring kynurenine secreted into the media. This cell-based assay, as a rapid and simple method for determination IDO1/kynurenine, is closely related to the potency of the enzyme assay and has been widely used to identify various IDO1 inhibitors[19]^,[23]^,[29]^,[42]. In addition, cytotoxic compounds can reduce cell viability, which will decrease the IDO1 levels and then lower the conversion of tryptophan to kynurenine. Thus, we also employed this cellular assay to detect false positive IDO1 inhibitors and cytotoxic compounds by measuring HeLa cell viability. Clinical candidate navoximod was used as an assay control.
Furthermore, the viability of HeLa cells was evaluated by the MTT method at the end of the assay.

In the next series the test system is IDO1 protein expression. The experiment in a line: Western blot of IDO1 protein expression in IFN-γ-treated HeLa cells. In kind it is cell-based, human. The method, then:
(§1) The main bioassays performed in the study, including HeLa cell-based IDO1/kynurenine assay, Western blot analysis, T cell proliferation and Treg cell differentiation experiments, were carried out as described previously.
To exclude the possibility that these secondary sulphonamides inhibit IDO1 activity by down-regulating IDO1 expression, we utilised Western blot to measure the expression of IDO1 protein in HeLa cells treated with different compounds.
Figure 3. […] (B) The greyscale scanning statistical results of A. (C) HeLa cells were incubated with compound 5d (3, 10, 30 μM) for 24 h. (D) The greyscale scanning statistical results of C. (E) HeLa cells were incubated with compound 5d (3, 10, 30 μM) for 48 h. (F) The greyscale scanning statistical results of E. Data are presented as means ± SEM (n = 3).
In general terms: A western blot detects proteins with antibodies after separation by electrophoresis.

Series [1] relates to naïve CD4+ T cells co-cultured with B16F1 melanoma cells. Description: T cell proliferation in B16F1-T cell co-culture (MTT). As to conditions: 18 μM. In kind it is cell-based, mouse. On the procedure:
as §1
T lymphocytes are exceedingly sensitive to low tryptophan levels. Overactivation of the kynurenine pathway by high IDO1 expression leads to local tryptophan depletion, which can suppress T cell proliferation by activating the GCN2 kinase pathway and eventually result in T cell anergy. Here, to determine whether secondary sulphonamides could rescue IDO1-mediated blockade of T cell proliferation, we used a co-culture of IDO1-expressing B16F1 melanoma cells with naïve CD4^+ T cells to mimic the tumour microenvironment. Given that melanoma is a highly immunogenic tumour and IDO1 constitutively expresses in melanoma cells, B16F1 murine melanoma cell lines that express IDO1 were then used to co-culture with T cells. Naïve CD4^+ T cells were isolated from spleens of C57BL/6 mice.
Figure 4. Compounds 5d and 8 g could promote the proliferation of T cells. Based on the B16F1-T cell co-culture system, use MTT assay to test T cells proliferation. The Navoximod and compounds were added to the system at the concentration of 1.5 and 18 μM. Data represent mean ± SEM (n = 3).

For series [2], the system named is naïve CD4+ T cells co-cultured with B16F1 cells. The experiment in a line: FoxP3+ Treg cell differentiation in B16F1-T cell co-culture (flow cytometry). In kind it is cell-based, mouse. To be noted: 18 μM. On the procedure: as §1
Besides causing local tryptophan depletion, high IDO1 expression can also accumulate metabolites of kynurenine pathway. The elevated metabolites can not only induce effector T cell death directly through their cytotoxicity, but also promote the differentiation of naïve CD4^+ T cells into CD4^+ FoxP3^+ Treg cells by activating the AHR pathway. As a highly immunosuppressive subset of CD4^+ T cells, FoxP3^+ Treg cells are critical to the maintenance of immune homeostasis and are involved in tumour immune escape, thereby contributing to tumour development and progression. Therefore, we also utilised co-culture of B16F1 cells with naïve CD4^+ T cells to test whether the synthesised compounds could suppress IDO1 mediated Treg cell differentiation.
Figure 5. Compounds 5d and 8 g inhibited Treg cell differentiation in the cell co-culture system. (A) After co-cultured with B16F1 cells, T cells were collected. Surface staining was performed with CD4^+ FTTC and CD25^+ PE for 30 min at 4 °C. The cells were fixed and permeabilized with fixation buffer and permeabilization wash buffer. The intracellular staining was performed with FoxP3^+ APC for 20 min. The cells were then analysed by flow cytometry analysis. (B) Statistical analysis of result A. Data are represented as ± SEM (n = 3). *p < 0.05, **p < 0.01 vs T + B16F1. TEXT PRINTED IN THE PICTURE: (A) Navoximod: 8.1% (T + B16F1; 1.5 μM) | (A) 8g: 7.8% (T + B16F1; 18 μM) | (A) 5d: 2.1% (T + B16F1; 18 μM)
(In general: A flow cytometer gives signals particle by particle.)

Another series deals with CT26 colon carcinoma. The experiment in a line: CT26 colon carcinoma xenograft in immunodeficient BALB/c nude mice. In kind it is in vivo, mouse. On the procedure:
Eight-week-old male BALB/c nude mice, weighing 18–22 g, were supplied by Model Animal Research Centre of Nanjing University (Nanjing, China). 1 × 10^7/ml and 1 × 10^6 CT26 cells (in 0.1 ml PBS) were injected subcutaneously into the right flanks of mice. After CT26 xenograft BALB/c nude mouse model was established, all mice were randomly divided into three groups (n = 8). 5d (12.5 mg/kg) were administered (i.g) every day and 5-FU (25 mg/kg) awere administered (i.p) every three days. The following experimental procedures were similar to the described above.
For immunohistochemistry staining, the sections were deparaffinized, rehydrated, and washed in 1% PBS-Tween 20, and then treated with 2% hydrogen peroxide, blocked with 3% goat serum (Life Technology, 16210–064) and incubated for 2 h at room temperature with specific primary antibodies. Then the slides were incubated with streptavidin-HRP (Shanghai Gene Company, GK500705) for 40 min, then stained with DAB (Shanghai Gene Company, GK500705) substrate and counter-stained with haematoxylin. Images were acquired by microscopy (Olympus IX51).
Then, in order to clarify whether the in vivo antitumour efficacy of compound 5d was related to the mouse immune system, we repeated the above experiment in immunodeficient nude mice. Briefly, BALB/c nude mice bearing established CT26 colon carcinoma xenograft were treated with compound 5d and 5-FU for 10 days.
Figure 8. […] 1 × 10^6 CT26 cells were transplanted subcutaneously into the armpit of immunodeficient BALB/c nude mice. Three days after transplantation, mice were randomly allocated to vehicle control or treatment groups (n = 8). Drugs were administered on days 1–9. (A) Tumour volume and mouse body weight (B) were recorded. After sacrifice, solid tumours were separated and weighed (C, D). Data represent mean ± SEM, n = 8, *p < 0.05, **p < 0.01 vs vehicle.
To verify the above conclusions, we further performed H&E and IHC staining on the nude mouse CT26 tumour tissues. […] These findings further supported the above conclusions.

Setting [3] is: nude mouse CT26 tumour tissue, 12.5 mg/kg i.g.

On to `C=CC(=O)Nc1ccc(S(=O)(=O)NCc2cccc(Cl)c2)cc1` [5d, N-(4-(N-(3-Chlorobenzyl)sulfamoyl)phenyl)acrylamide], for which the HeLa cell viability result in the series with HeLa cells was “without affecting the cell viability”. Also, the “expression of IDO1 protein” value in the series on IDO1 protein expression (HeLa cells, 3, 10, 30 µM for 24 h or 48 h) is reported as “did not affect IDO1 expression”. The “expression of IDO1 protein” value in the series with IDO1 protein expression (HeLa cells, IFN-γ 100 ng/mL 24 h, then compounds at their IC50 concentrations for 24 h) is “did not influence IDO1 expression”. Moreover, the T cell proliferation entry in series [1] is recorded as “significant augmentation on T cell activity; also recorded: better enhancement of T cell proliferation than navoximod”. The “FoxP3+ Treg cells (flow cytometry)” value in series [2] stood at 2.1%. The “FoxP3+ Treg cell differentiation (in words)” value in series [2] (Con A, 48 h) is on record as “significantly reduce FoxP3^+ Treg cell differentiation; also recorded: returned to the initial level”. For the same compound, the tumour growth result with CT26 colon carcinoma (BALB/c nude mice, 12.5 mg/kg i.g every day, vs vehicle) is “did not block tumour growth”. Besides, in the series on CT26 colon carcinoma (setting [3]), the “expression of PCNA” value was “had no influence on the expression of PCNA” and the “tumour cell morphology (H&E staining)” value is given as “remained intact morphology”.
